Experimental data from patent publication US20250361230A1, “LATS Inhibitors and Uses Thereof” (The USA, as Represented by the Secretary, Dept. of Heath …, priority 2022, published 2025).
Like-named read-outs stand apart in the source and are kept apart here.

Columns and labels:
Format in all cases: biochemical
LATS1 = target: T1, LATS1 (Homo sapiens, UniProt O95835); test: RBC HotSpot kinase assay (33P-ATP, P81 filter-binding), LATS1; conditions: read-out: LATS1 IC50
T1 sequence (O95835 1-1130): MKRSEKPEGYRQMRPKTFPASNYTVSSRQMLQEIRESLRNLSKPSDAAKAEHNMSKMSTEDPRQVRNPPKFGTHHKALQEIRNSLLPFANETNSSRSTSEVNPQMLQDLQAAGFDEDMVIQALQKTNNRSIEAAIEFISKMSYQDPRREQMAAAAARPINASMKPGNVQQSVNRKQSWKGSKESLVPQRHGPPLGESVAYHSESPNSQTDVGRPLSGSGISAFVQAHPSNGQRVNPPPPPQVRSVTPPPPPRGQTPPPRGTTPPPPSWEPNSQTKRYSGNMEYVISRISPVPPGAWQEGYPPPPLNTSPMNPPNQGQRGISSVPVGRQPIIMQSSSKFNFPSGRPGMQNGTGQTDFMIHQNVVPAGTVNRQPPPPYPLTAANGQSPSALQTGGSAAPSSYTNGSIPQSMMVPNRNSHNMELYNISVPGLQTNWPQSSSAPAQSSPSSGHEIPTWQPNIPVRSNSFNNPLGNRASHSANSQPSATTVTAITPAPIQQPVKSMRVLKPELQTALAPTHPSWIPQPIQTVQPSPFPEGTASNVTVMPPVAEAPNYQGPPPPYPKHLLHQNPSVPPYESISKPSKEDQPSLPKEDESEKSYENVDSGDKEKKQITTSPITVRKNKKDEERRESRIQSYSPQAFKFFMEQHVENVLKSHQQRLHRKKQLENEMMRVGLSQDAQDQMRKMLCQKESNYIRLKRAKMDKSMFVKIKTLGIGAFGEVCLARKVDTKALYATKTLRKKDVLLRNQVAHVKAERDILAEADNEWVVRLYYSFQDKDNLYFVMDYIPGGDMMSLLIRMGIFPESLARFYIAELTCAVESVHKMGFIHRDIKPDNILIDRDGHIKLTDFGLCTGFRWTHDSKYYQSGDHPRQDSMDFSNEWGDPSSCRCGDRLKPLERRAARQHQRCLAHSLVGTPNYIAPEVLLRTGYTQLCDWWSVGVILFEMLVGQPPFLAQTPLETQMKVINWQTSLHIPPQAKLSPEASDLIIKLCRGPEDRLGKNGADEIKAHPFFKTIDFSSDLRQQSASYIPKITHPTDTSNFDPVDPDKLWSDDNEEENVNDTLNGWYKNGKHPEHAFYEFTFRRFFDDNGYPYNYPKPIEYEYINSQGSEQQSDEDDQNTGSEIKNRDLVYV
Method: (§1) Biochemical kinase inhibitory data was obtained for various exemplary compounds prepared according to the above.
(§2) The reagents used are as follows: Base Reaction buffer; 20 mM Hepes (pH 7.5), 10 mM MgCl2, 1 mM EGTA, 0.01% Brij35, 0.02 mg/ml BSA, 0.1 mM Na3VO4, 2 mM DTT, […]. Required cofactors were added individually to each kinase reaction.
(§3) The reaction procedure was as follows: • 1) Substrates were prepared in freshly prepared Reaction Buffer. • 2) Any required cofactors were delivered to the substrate solution above. • 3) Kinase was delivered into the substrate solution and gently mixed. • 4) Compounds were delivered in 100% DMSO into the kinase reaction mixture by Acoustic technology (Echo550; nanoliter range), followed by incubation for 20 min at room temp. • 5) ^33P-ATP was delivered into the reaction mixture to initiate the reaction. • 6) The mixture was incubated for 2 hours at room temperature. • 7) Kinase activity was detected by P81 filter-binding method.
(§4) Using the above functional assay, the inhibitory activity of the compounds for LATS1/2 versus AKT was characterized. The assays were typically run in a 10-point curve, in singlet, to produce a titration curve from which an IC50 value was obtained.
(§5) The reagents used are as follows: Base Reaction buffer; 20 mM Hepes (pH 7.5), 10 mM MgCl2, 1 mM EGTA, 0.01% Brij35, 0.02 mg/ml BSA, 0.1 mM Na3VO4, 2 mM DTT, 1% DMSO. Required cofactors were added individually to each kinase reaction.
(§6) Biochemical kinase inhibitory data was obtained for various exemplary compounds prepared according to the above in accordance with the protocols described in Examples 4 and 8. All biological activities are IC50, in nM.

LATS2 = target: T2, LATS2 (Homo sapiens, UniProt Q9NRM7); test: RBC HotSpot kinase assay (33P-ATP, P81 filter-binding), LATS2; conditions: read-out: LATS2 IC50
T2 sequence (Q9NRM7 1-1088): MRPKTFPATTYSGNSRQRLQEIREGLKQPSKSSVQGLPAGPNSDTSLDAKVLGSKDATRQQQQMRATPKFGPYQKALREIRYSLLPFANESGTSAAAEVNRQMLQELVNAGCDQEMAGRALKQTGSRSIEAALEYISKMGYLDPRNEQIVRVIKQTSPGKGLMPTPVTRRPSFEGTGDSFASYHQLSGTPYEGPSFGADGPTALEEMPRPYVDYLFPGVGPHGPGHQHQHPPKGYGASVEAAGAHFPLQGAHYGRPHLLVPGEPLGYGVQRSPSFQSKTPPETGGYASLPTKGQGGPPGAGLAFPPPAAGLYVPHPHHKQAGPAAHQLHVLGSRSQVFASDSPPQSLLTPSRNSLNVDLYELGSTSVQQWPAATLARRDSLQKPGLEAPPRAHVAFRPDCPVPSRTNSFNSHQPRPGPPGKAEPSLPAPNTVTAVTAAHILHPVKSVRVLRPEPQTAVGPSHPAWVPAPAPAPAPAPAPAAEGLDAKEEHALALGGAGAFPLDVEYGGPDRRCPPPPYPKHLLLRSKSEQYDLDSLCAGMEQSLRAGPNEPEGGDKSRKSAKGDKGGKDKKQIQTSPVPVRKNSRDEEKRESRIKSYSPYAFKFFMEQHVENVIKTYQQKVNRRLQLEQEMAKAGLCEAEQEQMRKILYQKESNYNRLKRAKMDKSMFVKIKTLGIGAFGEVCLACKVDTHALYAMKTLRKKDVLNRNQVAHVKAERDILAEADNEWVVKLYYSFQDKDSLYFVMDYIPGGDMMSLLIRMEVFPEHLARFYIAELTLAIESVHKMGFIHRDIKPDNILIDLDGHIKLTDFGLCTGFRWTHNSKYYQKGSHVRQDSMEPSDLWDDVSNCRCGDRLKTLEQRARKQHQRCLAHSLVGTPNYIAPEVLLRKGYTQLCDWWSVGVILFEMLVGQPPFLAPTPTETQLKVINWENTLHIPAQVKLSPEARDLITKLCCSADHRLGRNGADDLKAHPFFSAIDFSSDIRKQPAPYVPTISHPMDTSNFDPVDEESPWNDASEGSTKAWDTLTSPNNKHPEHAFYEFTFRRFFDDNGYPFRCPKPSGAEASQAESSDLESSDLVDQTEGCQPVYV
Method: as §1, §2, §3, §4, §5, §6

AKT = AKT (Homo sapiens, UniProt P31749); test: RBC HotSpot kinase assay (33P-ATP, P81 filter-binding), AKT; conditions: read-out: AKT IC50
Method: as §1, §2, §3, §4, §5, §6

[1] = Table 32, biochemical kinase assay
[2] = Table 28, biochemical kinase assay

AKT, sequence (P31749 whole entry): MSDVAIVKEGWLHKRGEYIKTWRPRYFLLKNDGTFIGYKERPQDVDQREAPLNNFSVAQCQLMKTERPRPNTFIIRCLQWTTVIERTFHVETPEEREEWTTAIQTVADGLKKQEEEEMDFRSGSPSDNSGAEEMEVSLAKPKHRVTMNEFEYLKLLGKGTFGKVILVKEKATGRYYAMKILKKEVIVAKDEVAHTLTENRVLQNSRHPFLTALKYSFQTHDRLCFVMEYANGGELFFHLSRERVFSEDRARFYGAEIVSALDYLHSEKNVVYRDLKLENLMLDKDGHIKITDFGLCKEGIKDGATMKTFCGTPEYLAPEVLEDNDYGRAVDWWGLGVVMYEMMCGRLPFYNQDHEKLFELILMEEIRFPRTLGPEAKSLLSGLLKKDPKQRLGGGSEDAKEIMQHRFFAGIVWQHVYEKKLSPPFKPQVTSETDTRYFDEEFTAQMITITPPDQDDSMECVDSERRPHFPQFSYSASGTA

SMILES | IC50 (LATS1; [1]) | IC50 (LATS2; [1]) | IC50 (AKT; [1]) | IC50 (LATS1; [2]) | IC50 (LATS2; [2]) | IC50 (AKT; [2])
CN1CCC(c2ccc(-c3ccnc4[nH]cc(F)c34)cc2Cl)CC1 [Compound 167, 4-(3-chloro-4-(1-methylpiperidin-4-yl)phenyl)-3-fluoro-1H-pyrrolo[2,3-b]pyridine] |  |  |  | 0.018 µM | 0.031 µM | 1.52 µM
NCc1ccc(-c2cc(N)nc3[nH]ccc23)cc1 [Compound 225, 4-(4-(aminomethyl)phenyl)-1H-pyrrolo[2,3-b]pyridin-6-amine] |  |  |  | ≥ 10 µM | 6.42 µM | > 10 µM
Fc1c[nH]c2nccc(-c3ccc(C4(c5nnco5)CCNCC4)cc3)c12 [Compound 191, 2-(4-(4-(3-fluoro-1H-pyrrolo[2,3-b]pyridin-4-yl)phenyl)piperidin-4-yl)-1,3,4-oxadiazole] |  |  |  | 0.057 µM | 0.043 µM | 0.2 µM
O[C@]1(c2ccc(-c3ccnc4[nH]cc(F)c34)cc2Cl)[C@@H]2CC[C@H]1CNC2 [Compound 103, (1R,5S,8s)-8-(2-chloro-4-(3-fluoro-1H-pyrrolo[2,3-b]pyridin-4-yl)phenyl)-3-azabicyclo[3.2.1]octan-8-ol] |  |  |  | 0.0439 µM | 0.162 µM | 1.72 µM
Cc1nc(-c2ccnc3[nH]cc(F)c23)ccc1[C@@]1(O)[C@H](C)CNC[C@@H]1C [Compound 10, (3S,4s,5R)-4-(6-(3-fluoro-1H-pyrrolo[2,3-b]pyridin-4-yl)-2-methylpyridin-3-yl)-3,5-dimethylpiperidin-4-ol] |  |  |  | 0.0237 µM | 0.0203 µM | 1.72 µM
COc1cc(C2CCNCC2)ccc1-c1ccnc2[nH]ccc12 [Compound 179, 4-(2-methoxy-4-(piperidin-4-yl)phenyl)-1H-pyrrolo[2,3-b]pyridine] |  |  |  | 1.08 µM | 1.29 µM | 5.66 µM
Cc1c[nH]c2nccc(-c3cc(F)c([C@@]4(O)[C@H](C)CNC[C@@H]4C)c(F)c3)c12 [Compound 15] |  |  |  | 0.0085 µM | 0.0072 µM | 0.362 µM
c1cc(-c2ccc(C3CCNCC3)cn2)c2cc[nH]c2n1 [Compound 175, 4-(5-(piperidin-4-yl)pyridin-2-yl)-1H-pyrrolo[2,3-b]pyridine] |  |  |  | 0.056 µM | 0.142 µM | 7 µM
NCC(=O)N1CC2(C1)CC(O)(c1c(F)cc(-c3ccnc4[nH]cc(F)c34)cc1F)C2 [Compound 145, 2-amino-1-(6-(2,6-difluoro-4-(3-fluoro-1H-pyrrolo[2,3-b]pyridin-4-yl)phenyl)-6-hydroxy-2-azaspiro[3.3]heptan-2-yl)ethan-1-one] |  |  |  | 0.0283 µM | 0.046 µM | 1.87 µM
OC1(c2ccc(-c3ccnc4[nH]cc(Br)c34)cc2Cl)C2CNCC1C2 (stereo not drawn) [Compound 121, 6-(4-(3-bromo-1H-pyrrolo[2,3-b]pyridin-4-yl)-2-chlorophenyl)-3-azabicyclo[3.1.1]heptan-6-ol] |  |  |  | 0.0102 µM | 0.0146 µM | 0.307 µM
C[C@@H]1CN(C2CCS(=O)(=O)CC2)C[C@H](C)[C@@]1(O)c1ccc(-c2ccnc3[nH]cc(F)c23)cc1Cl [Compound 26, 4-((3S,4s,5R)-4-(2-chloro-4-(3-fluoro-1H-pyrrolo[2,3-b]pyridin-4-yl)phenyl)-4-hydroxy-3,5-dimethylpiperidin-1-yl)tetrahydro-2H-thiopyran 1,1-dioxide] |  |  |  | 0.00073 µM | 0.00051 µM | 0.0188 µM

Second part, the molecule after the results:

IC50 (LATS1; [1]) | IC50 (LATS2; [1]) | IC50 (AKT; [1]) | IC50 (LATS1; [2]) | IC50 (LATS2; [2]) | IC50 (AKT; [2]) | SMILES
0.0085 µM | 0.0084 µM | 0.126 µM |  |  |  | NCC(O)(c1ccc(Cl)cc1)c1ccc(-c2ccnc3[nH]cc(-c4ccccc4)c23)nc1 (stereo not drawn) [Compound 1012, 2-amino-1-(4-chlorophenyl)-1-(6-(3-phenyl-1H-pyrrolo[2,3-b]pyridin-4-yl)pyridin-3-yl) ethan-1-ol]
 |  |  | 0.124 µM | 0.0493 µM | 3.67 µM | NCc1ccc(-c2ccnc3[nH]cc(-c4cccc(C(F)(F)F)c4)c23)cc1 [Compound 227, (4-(3-(3-(trifluoromethyl)phenyl)-1H-pyrrolo[2,3-b]pyridin-4-yl)phenyl) methanamine]
 |  |  | 0.0033 µM | 0.0116 µM | 0.0605 µM | CC(C)c1cc(-c2ccnc3[nH]cc(Cl)c23)ccc1CN [Compound 232, (4-(3-chloro-1H-pyrrolo[2,3-b]pyridin-4-yl)-2-isopropylphenyl) methanamine]
 |  |  | 0.0065 µM | 0.0239 µM | 0.0684 µM | NCc1ccc(-c2ccnc3[nH]cc(Cl)c23)cc1-c1ccccc1 [Compound 234, (5-(3-chloro-1H-pyrrolo[2,3-b]pyridin-4-yl)-[1,1′-biphenyl]-2-yl)methanamine]
 |  |  | 0.013 µM | 0.012 µM | 0.625 µM | Cc1c[nH]c2nccc(-c3ccc(CN)cc3)c12 [Compound 257, (4-(3-methyl-1H-pyrrolo[2,3-b]pyridin-4-yl)phenyl) methanamine]
 |  |  | 0.012 µM | 0.023 µM | 0.1 µM | CCN(CC)c1cc(-c2ccnc3[nH]ccc23)ccc1CN [Compound 237, 2-(aminomethyl)-N,N-diethyl-5-(1H-pyrrolo[2,3-b]pyridin-4-yl)aniline]
0.0317 µM | 0.012 µM | 0.0032 µM |  |  |  | NCC(O)(c1ccc(Cl)cc1)c1ccc(-c2ccnc3[nH]cc(Cl)c23)cc1 (stereo not drawn) [Compound 1003, 2-amino-1-(4-(3-chloro-1H-pyrrolo[2,3-b]pyridin-4-yl)phenyl)-1-(4-chlorophenyl) ethan-1-ol]
